Activity calls are given as the source filed them. No cut-off for these calls is given here.
How the values were obtained:
in vitro = conditions: PHA-activated T cells
[1] = biological target: Voltage-gated inwardly rectifying potassium channel KCNH2 (Homo sapiens, UniProt Q12809); assay: Inhibition of hERG by patch clamp assay; assay type: toxicity
[2] = Metabolic stability in human liver microsomes assessed as compound remaining; assay type: ADME, Microsome; note: time not given here
[3] = Metabolic stability in mouse liver microsomes assessed as compound remaining; assay type: ADME, Microsome; note: time not given here
Toll-like receptor 7 [4] = biological target: T1, Toll-like receptor 7 (Mus musculus, UniProt P58681)
T1 sequence (P58681 whole entry): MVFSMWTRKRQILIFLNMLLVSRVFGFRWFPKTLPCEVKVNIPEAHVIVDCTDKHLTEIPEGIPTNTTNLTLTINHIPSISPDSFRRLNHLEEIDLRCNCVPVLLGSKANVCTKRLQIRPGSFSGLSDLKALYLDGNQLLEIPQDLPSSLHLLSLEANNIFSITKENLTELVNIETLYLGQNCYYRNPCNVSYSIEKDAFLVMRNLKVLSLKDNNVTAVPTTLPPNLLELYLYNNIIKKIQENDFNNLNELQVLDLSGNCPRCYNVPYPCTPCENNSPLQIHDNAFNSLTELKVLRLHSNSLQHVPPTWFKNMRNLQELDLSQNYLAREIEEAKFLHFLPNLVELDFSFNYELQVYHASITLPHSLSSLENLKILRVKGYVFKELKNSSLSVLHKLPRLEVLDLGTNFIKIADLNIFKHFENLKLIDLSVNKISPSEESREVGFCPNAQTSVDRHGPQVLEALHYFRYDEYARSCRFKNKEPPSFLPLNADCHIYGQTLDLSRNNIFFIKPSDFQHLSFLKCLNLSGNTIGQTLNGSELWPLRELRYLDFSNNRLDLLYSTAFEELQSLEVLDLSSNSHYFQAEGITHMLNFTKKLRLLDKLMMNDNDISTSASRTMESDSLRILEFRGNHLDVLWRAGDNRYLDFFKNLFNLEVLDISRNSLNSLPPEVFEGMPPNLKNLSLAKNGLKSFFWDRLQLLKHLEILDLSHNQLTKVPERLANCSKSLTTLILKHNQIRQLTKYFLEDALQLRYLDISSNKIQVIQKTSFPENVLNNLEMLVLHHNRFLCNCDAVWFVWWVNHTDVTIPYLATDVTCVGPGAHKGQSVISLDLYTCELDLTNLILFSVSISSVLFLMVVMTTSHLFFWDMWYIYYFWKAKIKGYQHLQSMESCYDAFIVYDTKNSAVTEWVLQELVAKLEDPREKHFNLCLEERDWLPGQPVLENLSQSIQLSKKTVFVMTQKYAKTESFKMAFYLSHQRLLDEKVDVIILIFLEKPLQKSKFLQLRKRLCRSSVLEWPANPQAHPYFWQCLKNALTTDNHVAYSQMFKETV

Toll-like receptor 7 [5] = biological target: T2, Toll-like receptor 7 (Homo sapiens, UniProt Q9NYK1)
T2 sequence (Q9NYK1 whole entry): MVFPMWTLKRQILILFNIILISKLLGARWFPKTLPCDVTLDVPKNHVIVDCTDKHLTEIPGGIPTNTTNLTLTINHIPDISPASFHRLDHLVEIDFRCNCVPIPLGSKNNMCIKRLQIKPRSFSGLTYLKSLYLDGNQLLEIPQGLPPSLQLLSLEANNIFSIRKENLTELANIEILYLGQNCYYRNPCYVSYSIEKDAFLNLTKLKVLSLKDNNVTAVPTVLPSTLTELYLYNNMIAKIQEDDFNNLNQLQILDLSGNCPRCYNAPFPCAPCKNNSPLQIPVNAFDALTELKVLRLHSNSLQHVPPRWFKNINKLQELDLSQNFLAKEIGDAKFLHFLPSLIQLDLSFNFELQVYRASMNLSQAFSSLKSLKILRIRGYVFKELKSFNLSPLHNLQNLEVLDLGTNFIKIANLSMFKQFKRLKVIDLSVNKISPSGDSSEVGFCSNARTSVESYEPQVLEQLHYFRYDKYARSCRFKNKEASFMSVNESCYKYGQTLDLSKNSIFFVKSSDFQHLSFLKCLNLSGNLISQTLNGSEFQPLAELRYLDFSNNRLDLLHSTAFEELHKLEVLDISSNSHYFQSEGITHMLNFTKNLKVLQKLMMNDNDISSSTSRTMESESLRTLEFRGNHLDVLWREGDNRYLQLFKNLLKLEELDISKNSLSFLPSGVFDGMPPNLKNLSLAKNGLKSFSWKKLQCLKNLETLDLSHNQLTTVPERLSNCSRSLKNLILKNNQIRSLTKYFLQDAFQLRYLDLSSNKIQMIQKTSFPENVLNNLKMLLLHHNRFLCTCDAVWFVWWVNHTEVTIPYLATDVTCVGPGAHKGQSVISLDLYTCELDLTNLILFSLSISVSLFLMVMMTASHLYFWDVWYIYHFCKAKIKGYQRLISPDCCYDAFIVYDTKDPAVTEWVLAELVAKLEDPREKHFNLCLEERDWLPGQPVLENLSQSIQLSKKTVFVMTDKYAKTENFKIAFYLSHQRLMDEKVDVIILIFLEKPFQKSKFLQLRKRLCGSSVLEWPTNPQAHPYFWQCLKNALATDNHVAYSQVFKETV

Cytochrome P450 3A4 = Cytochrome P450 3A4 (Homo sapiens, UniProt P08684); assay: Inhibition of CYP3A4 (unknown origin) using 7-benzyloxy-4-(trifluoromethyl)-coumarin as substrate preincubated with compound followed by substrate addition at 30 mins; assay type: ADME
Sequence of Cytochrome P450 3A4 (P08684 whole entry): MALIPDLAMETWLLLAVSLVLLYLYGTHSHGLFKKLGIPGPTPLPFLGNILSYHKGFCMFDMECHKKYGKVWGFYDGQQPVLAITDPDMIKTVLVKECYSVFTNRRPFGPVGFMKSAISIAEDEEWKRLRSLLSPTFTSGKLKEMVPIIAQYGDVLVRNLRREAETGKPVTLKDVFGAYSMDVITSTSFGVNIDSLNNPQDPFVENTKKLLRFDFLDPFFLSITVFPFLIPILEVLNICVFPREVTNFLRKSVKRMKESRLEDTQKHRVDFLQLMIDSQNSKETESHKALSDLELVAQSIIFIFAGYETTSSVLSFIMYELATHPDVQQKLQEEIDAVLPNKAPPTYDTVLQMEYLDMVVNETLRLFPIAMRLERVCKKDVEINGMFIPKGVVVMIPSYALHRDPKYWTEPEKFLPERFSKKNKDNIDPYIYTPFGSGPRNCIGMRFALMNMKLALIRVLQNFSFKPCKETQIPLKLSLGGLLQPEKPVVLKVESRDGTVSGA

Toll-like receptor 8 = biological target: T3, Toll-like receptor 8 (Homo sapiens, UniProt Q9NR97); assay: Agonist activity at human TLR8
T3 sequence (Q9NR97 whole entry): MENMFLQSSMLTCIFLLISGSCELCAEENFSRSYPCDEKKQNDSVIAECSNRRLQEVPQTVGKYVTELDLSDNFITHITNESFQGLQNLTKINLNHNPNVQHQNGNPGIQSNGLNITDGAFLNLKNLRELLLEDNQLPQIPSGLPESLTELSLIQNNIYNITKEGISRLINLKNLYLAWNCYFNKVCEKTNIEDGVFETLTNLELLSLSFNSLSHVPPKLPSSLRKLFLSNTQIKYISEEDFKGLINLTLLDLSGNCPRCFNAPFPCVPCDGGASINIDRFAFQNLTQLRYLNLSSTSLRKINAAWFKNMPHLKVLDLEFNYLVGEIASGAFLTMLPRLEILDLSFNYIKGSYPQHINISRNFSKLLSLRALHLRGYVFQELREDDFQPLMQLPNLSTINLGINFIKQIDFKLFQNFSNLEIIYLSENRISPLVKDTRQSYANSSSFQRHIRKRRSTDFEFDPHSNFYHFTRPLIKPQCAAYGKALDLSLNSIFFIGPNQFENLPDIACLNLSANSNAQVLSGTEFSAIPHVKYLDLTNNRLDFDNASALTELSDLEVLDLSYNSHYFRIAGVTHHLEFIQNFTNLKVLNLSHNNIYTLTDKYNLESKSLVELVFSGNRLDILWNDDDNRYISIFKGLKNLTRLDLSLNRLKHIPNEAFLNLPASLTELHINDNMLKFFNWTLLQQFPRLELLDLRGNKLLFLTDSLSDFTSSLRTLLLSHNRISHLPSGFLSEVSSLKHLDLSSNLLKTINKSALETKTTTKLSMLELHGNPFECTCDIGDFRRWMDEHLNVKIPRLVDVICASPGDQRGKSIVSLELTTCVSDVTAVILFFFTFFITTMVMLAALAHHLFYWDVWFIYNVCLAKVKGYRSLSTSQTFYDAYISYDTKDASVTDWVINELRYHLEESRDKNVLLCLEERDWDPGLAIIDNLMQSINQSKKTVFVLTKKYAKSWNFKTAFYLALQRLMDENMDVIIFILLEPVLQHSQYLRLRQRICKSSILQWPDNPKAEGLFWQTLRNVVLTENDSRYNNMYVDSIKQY

Toll-like receptor 7 [6] = biological target: T1, Toll-like receptor 7; assay: Agonist activity at mouse TLR7
[7] = biological target: T4, Toll-like receptor 8 (Homo sapiens) (UniProt Q9NR97); assay: Agonist activity at TLR8 (unknown origin)
T4 sequence (whole entry): T3 sequence (Q9NR97 whole entry)

Sequence of Voltage-gated inwardly rectifying potassium channel KCNH2 (Q12809 whole entry): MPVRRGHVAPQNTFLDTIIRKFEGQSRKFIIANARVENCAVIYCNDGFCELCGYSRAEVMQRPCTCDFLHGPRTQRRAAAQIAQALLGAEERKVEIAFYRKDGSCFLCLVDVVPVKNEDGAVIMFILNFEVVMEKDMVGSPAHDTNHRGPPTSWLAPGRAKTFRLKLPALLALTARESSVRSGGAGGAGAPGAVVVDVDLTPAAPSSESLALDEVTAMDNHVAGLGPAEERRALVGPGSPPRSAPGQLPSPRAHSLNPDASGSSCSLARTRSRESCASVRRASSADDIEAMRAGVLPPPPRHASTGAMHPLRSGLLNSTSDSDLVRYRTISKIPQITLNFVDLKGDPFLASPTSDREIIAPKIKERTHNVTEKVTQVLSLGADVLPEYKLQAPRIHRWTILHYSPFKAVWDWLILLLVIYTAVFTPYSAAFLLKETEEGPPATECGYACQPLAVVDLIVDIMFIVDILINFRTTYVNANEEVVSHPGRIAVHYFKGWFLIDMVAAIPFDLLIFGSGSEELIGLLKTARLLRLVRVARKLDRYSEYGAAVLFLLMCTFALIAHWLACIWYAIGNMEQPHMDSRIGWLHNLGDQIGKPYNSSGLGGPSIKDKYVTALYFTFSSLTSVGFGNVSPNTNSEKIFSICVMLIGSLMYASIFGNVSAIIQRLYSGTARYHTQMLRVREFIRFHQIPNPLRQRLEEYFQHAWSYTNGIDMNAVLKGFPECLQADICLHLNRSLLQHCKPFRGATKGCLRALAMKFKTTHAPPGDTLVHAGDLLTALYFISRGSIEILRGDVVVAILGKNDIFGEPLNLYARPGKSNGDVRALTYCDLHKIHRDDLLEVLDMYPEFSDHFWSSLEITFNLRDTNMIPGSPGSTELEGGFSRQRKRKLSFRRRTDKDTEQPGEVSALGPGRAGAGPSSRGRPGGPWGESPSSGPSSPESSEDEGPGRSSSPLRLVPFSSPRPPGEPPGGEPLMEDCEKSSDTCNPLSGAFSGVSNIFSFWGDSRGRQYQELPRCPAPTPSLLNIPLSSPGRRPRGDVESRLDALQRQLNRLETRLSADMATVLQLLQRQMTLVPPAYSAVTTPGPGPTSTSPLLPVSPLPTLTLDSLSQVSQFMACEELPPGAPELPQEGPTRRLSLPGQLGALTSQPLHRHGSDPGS

Row | IC50 (in vitro) [µM] | Stability [2] [%] | Stability [3] [%] | Compound | IC50 [1] [µM] | also measured
1 | > 25 | 90 | 77 | CCC[C@@H](CO)Nc1nc(N)nc2cnn(Cc3ccc(CNC4CCOCC4)cc3OC)c12 | > 50 | 
2 | > 25 | 83 | 84 | CC[C@@H](CCO)Nc1nc(N)nc2cnn(Cc3ccc(CNC4CCOCC4)cc3OC)c12 | > 50 | IC50 (Toll-like receptor 7 [4]): 1.25 µM
3 | > 25 | 78 | 93 | CCC[C@@H](CCO)Nc1nc(N)nc2cnn(Cc3ncc(CNC4CCOCC4)cc3OC)c12 | 6 | 
4 | > 25 | 89 | 100 | COc1cc(CNC2CCOCC2)ccc1Cn1ncc2nc(N)nc(N[C@@H](C)CCO)c21 | > 50 | IC50 (Toll-like receptor 7 [4]): > 5 µM
5 | > 25 | 81 | 87 | CCC[C@@H](CCO)Nc1nc(N)nc2cnn(Cc3cnc(CNC4CCOCC4)cc3OC)c12 | > 50 | 
6 | > 25 |  |  | CCC[C@@H](CCO)Nc1nc(N)nc2cnn(Cc3ccc(CNC4CCOCC4)nc3OC)c12 |  | 
7 |  | 83 | 60 | CCCCNc1nc(N)nc2cnn(Cc3ccc(CN4CCNCC4)cc3OC)c12 |  | 
8 | 24.7 | 70 | 30 | CCC[C@@H](C)Nc1nc(N)nc2cnn(Cc3ccc(CNC4CCOCC4)cc3OC)c12 | 30.4 | 
9 | 16 | 41 | 2 | CCCCNc1nc(N)nc2cnn(Cc3ccc(CNC4CCC4)cc3OC)c12 | 18.8 | IC50 (Cytochrome P450 3A4): 6.65 µM; EC50 (Toll-like receptor 8): > 5 µM; EC50 (Toll-like receptor 7 [6]): 0.121 µM
10 | > 25 | 80 | 63 | COc1cc(CNC2CCOCC2)ccc1Cn1ncc2nc(N)nc(N[C@H](CCO)C(C)C)c21 | > 50 | 
11 |  | 1 | 26 | CCCCNc1nc(N)nc2cnn(Cc3ccc(Cn4ccnc4)cc3OC)c12 |  | 
12 | > 25 | 66 | 91 | CCC[C@@H](CCO)Nc1nc(N)nc2cnn(Cc3ccc(CNC4CCOCC4)cc3F)c12 | > 50 | 
13 | > 25 | 56 | 56 | CCC[C@@H](CCO)Nc1nc(N)nc2cnn(Cc3ccc(CNC4CCOCC4)c4cccnc34)c12 | > 50 | 

Further lines, the molecule ahead of its results:

Row | Compound | IC50 (in vitro) [µM] | Stability [2] [%] | Stability [3] [%] | IC50 [1] [µM] | also measured
14 | CCC[C@@H](CCO)Nc1nc(N)nc2cnn(Cc3ccc(CNC4CCOCC4)cc3OC(F)F)c12 | 7 | 51 | 55 | 30.4 | 
15 | CCCCNc1nc(N)nc2cnn(Cc3ccc(CN4CCCCC4)cc3OC)c12 |  | 33 | 2 |  | EC50 (Toll-like receptor 7 [4]): 0.225 µM
16 | CCCCNc1nc(N)nc2cnn(Cc3ccc(CNC4COC4)cc3OC)c12 |  | 55 | 46 |  | 
17 | CCCCNc1nc(N)nc2cnn(Cc3ccc(CNC4CCOCC4)cc3OC)c12 | 22 | 68 | 25 |  | EC50 (Toll-like receptor 7 [4]): 0.453 µM
18 | CCCCNc1nc(N)nc2cnn(Cc3ccc(CN4CCOCC4)cc3OC)c12 |  | 20 | 15 |  | 
19 | CCCCOc1nc(N)nc2cnn(Cc3ccc(CNC4CCOCC4)cc3OC)c12 | > 25 |  |  |  | IC50 (Toll-like receptor 7 [4]): > 5 µM
20 | COc1cc(CNC2CCOCC2)ccc1Cn1ncc2nc(N)nc(N[C@H](CCO)C3CC3)c21 | > 25 | 9 | 87 | > 50 | 
21 | CCCCNc1nc(N)nc2cnn(Cc3ccc(CNCc4ccncc4)cc3OC)c12 |  | 1 | 3 |  | 
22 | CCCCNc1nc(N)nc2cnn(Cc3ccccc3OC)c12 |  |  |  |  | EC50 (Toll-like receptor 7 [5]): 0.384 µM
23 | CCCCNc1nc(N)nc2ncn(Cc3ccccc3)c12 |  |  |  |  | EC50 (Toll-like receptor 7 [5]): > 5 µM
24 | CCC[C@@H](CCNC(C)=O)Nc1nc(N)nc2cnn(Cc3ccc(CNC4CCOCC4)cc3OC)c12 | > 25 | 93 | 91 |  | 
25 | CCCCNc1nc(N)nc2cnn(Cc3ccc(CN4CC5CC4CN5)cc3OC)c12 (stereo not given) |  | 90 | 10 |  | 
26 | CCC[C@@H](CCO)Nc1nc(N)nc2cnn(Cc3ccc(CNC4CCOCC4)nc3)c12 | > 25 | 100 | 91 | > 50 | Activity [7]: inactive; EC50 (Toll-like receptor 7 [4]): > 5 µM
27 | CCCCN(C)c1nc(N)nc2cnn(Cc3ccc(CNC4CCOCC4)cc3OC)c12 | > 25 | 57 | 11 | > 50 | IC50 (Toll-like receptor 7 [4]): > 5 µM
28 | CCCCNc1nc(N)nc2cnn(Cc3ccc(C(=O)NC4CCOCC4)cc3OC)c12 |  | 68 | 62 |  | 
29 | CCCCNc1nc(N)nc2cnn(Cc3ccc(CN4CC5(CNC5)C4)cc3OC)c12 |  | 100 | 100 |  | 
30 | CCC[C@@H](CCO)Nc1nc(N)nc2cnn(Cc3ccc(CNC4CCOCC4)cc3)c12 | > 25 | 90 | 91 | > 50 | EC50 (Toll-like receptor 7 [4]): > 5 µM

Source: ChEMBL document CHEMBL5357068, “Discovery of Novel TLR7 Agonists as Systemic Agent for Combination With aPD1 for Use in Immuno-oncology” (ACS Med Chem Lett, 2024)
